The target of assay [1] is T1, Farnesyl-protein transferase (Bos taurus, UniProt P29702+P49355).
T1 construct: Farnesyl-protein transferase from bovine brain; from tissue; host or cells: bovine brain, partially purified (DEAE-Sephacel, N-octyl agarose, mono Q HPLC)
The assay can be described thus: Inhibition of Ras farnesylation in vitro by farnesyl-protein transferase (FTase). The class given is biochemical. The conditions noted are these: partially purified bovine brain FTase; Ras-CVLS 3.5 μM, [3H]FPP 0.25 μM; averages of 2-5 determinations. On the procedure:
The farnesyl pyrophosphate analog compounds of this invention were tested as follows for their ability to inhibit Ras farnesylation in vitro. Farnesyl-protein transferase from bovine brain was chromatographed on DEAE-Sephacel (Pharmacia, 0-0.8M NaCl gradient elution), N-octyl agarose (Sigma, 0-0.6M NaCl gradient elution), and a mono Q HPLC column (Pharmacia, 0-0.3M NaCl gradient). Ras-CVLS at 3.5 μM, 0.25 μM [^3 H]FPP, and the indicated compounds were incubated with this partially purified enzyme preparation.
The FTase data presented above are the averages of 2-5 determinations and reflect the ability of the test compounds to inhibit Ras farnesylation in vitro.

The test system of another assay is Ras farnesylation. As to conditions: Hancock et al., Casey et al., Schafer et al.; cited from earlier work.
The next assay concerns HMG-CoA reductase. As to conditions: cited from earlier work.

One may read the IC50 as the concentration at which inhibition is half-maximal.

`CC(C)=CCC/C(C)=C/CC/C(C)=C/CCC(O)CC(=O)O` (stereo not drawn) [Scheme 1, 3-Hydroxy-7,11,15-trimethylhexadeca-6,10,14-trienoic acid]: in assay [1], the IC50 was determined as 310 µM.

With `CC(C)=CCC/C(C)=C/CC/C(C)=C/CCC(=O)CP(=O)(O)O` [Scheme 2, [2-Oxo-6,10,14-trimethylpentadeca-5,9,13-trienyl]phosphonic acid], in assay [1], the IC50 is 62 µM.

In assay [1], `CC(C)=CCC/C(C)=C/CC/C(C)=C/CCC(O)CP(=O)(O)O` (stereo not drawn) [Scheme 3, [2-Hydroxy-6,10,14-trimethylpentadeca-5,9,13-trienyl]phosphonic acid] returned an IC50 of 100 µM. Against the preceding compound, the IC50 is about 1.6-fold higher.

`CC(=O)C(C/C=C(\C)CC/C=C(\C)CCC=C(C)C)P(=O)(O)O` (stereo not drawn) [Scheme 4, [1-Acetyl-4,8,12-trimethyltrideca-3,7,11-trienyl]phosphonic acid] came in with an IC50 in assay [1] of 21 µM. Compared with the last compound, the IC50 is about 4.8-fold lower.

For `CC(C)=CCC/C(C)=C/CC/C(C)=C/CNC(=O)CP(=O)(O)O` [Scheme 5, [2-[(E,E)-3,7,11-Trimethyl-2,6,10-dodecatrienylamino]-2-oxo-ethyl]phosphonic acid], the IC50 in assay [1] turned out to be 0.044 µM.

The compound `CC(C)=CCC/C(C)=C/CC/C(C)=C/CCSCP(=O)(O)O` [Scheme 6, [(E,E)-4,8,12-trimethyl-3,7,11-tridecatrienyl]thiomethyl-phosphonic acid] displayed an IC50 in assay [1] of 100 µM.

Take `CC[C@H](C)C(=O)O[C@H]1CCC=C2C=C[C@H](C)[C@H](CC[C@@H]3C[C@@H](O)CC(=O)O3)[C@H]21` [compactin]: the “Inhibition of Ras farnesylation in vivo” value in the assay on Ras farnesylation is given as “Inhibition of Ras farnesylation in vivo has been demonstrated”. The “Inhibition of HMG-CoA reductase” value in the assay with HMG-CoA reductase is reported as “inhibit HMG-CoA reductase”.

In the case of `CC[C@H](C)C(=O)O[C@H]1C[C@@H](C)C=C2C=C[C@H](C)[C@H](CC[C@@H]3C[C@@H](O)CC(=O)O3)[C@H]21` [lovastatin], in the assay with Ras farnesylation, the “Inhibition of Ras farnesylation in vivo” value is given as “Inhibition of Ras farnesylation in vivo has been demonstrated”. Moreover, the “Inhibition of HMG-CoA reductase” value in the assay on HMG-CoA reductase is recorded as “inhibit HMG-CoA reductase”.

In turn, “[1-Hydroxy-(E,E)-4,8,12-trimethyl-3,7,11-tridecatrienyl]phosphonic acid [Scheme 12]” returned an IC50 in assay [1] of 42 µM.

“[2-[(E,E)-3,7,11-Trimethyl-2,6,10-dodecatrienylamino]-2-oxo-ethyl]phosphonic acid monomethyl ester, potassium salt [Scheme 8]” showed an IC50 in assay [1] of 100 µM.

Values taken from patent US5362906A, “Farnesyl pyrophosphate analogs” (Merck & Co., Inc., priority 1993, dated 1994).
